Source: patent US20120321610A1, “METHOD TO INHIBIT NEUROPATHIC PAIN BY INTRATHECAL INJECTION OF PROTEIN PHOSPHATASES” (priority 2011, published 2012)

How the values were obtained:
Type in all cases: in vivo, rat
[1] = tested on: CCI animals (chronic constriction injury of the sciatic nerve); test: Thermal withdrawal latency in CCI animals after intrathecal injection; details: for analgesia, thermal latency threshold: group data, 100 units intrathecal, FIG. 13
Description: (§1) Thermal sensitivity is assessed using the hindpaw withdrawal test to a thermal noxious stimulus. An animal was placed inside a plastic box on a raised glass surface. The animal is free to move within the confines of the box. A movable, focused beam of radiant heat was placed under the glass on which the animal is resting a paw. The glass is progressively heated until a noxious threshold was reached to elicit paw withdrawal. As soon as the animal moved its paw, a photocell in the metal enclosure containing the heat source turned off the light. The latency (in sec) for the animal to withdraw its paw was recorded by a digital automatic display.
(§2) For both behaviors, the ipsilateral, injured, paw was tested four times to obtain an average value. Each test is separated by 5 min. Persons performing behavioral tests are blinded to treatment whenever possible.
(§3) Animals were anesthetized with isoflurane and prepared for surgery by clipping the hair over the mid-thigh area of the left hind leg, scrubbing the clipped area with povidone iodine and alcohol (repeated three times), and lubricating the eyes with sterile ophthalmic ointment. The sciatic nerve was exposed at mid-thigh level by blunt dissection through the biceps femoris muscles. The nerve was freed of adherent tissue, and four ligatures (4.0 chromic gut) were spaced about 1 mm apart. Care was taken to tie the ligatures so that the nerve trunk is just barely constricted when viewed with a dissecting microscope at 40×. […] The incision was closed in layers using chromic gut sutures for muscle and silk sutures for skin.
(§4) A stock solution of calcineurin enzyme at a concentration of 100 units/microliter is commercially available (Enzo Life Sciences, Plymouth Meeting, Pa., Cat. No. BML-SE163-5000). The stock solution was diluted 1:10 with saline (1 part of calcineurin stock solution+9 parts of saline) to make a diluted calcineurin solution of 10 units/microliter. Ten microliters of the diluted calcineurin solution was then injected intrathecally. In other words the dose is 100 units of calcineurin per animal. Animal weights were approximately 200 to 250 g. This equates to a dosage of roughly 3 μg/kg body weight (in the rat).
(§5) The animals were anesthetized with isoflurane and securely held in the sternal position. A 25 μl Hamilton-brand microsyringe was fitted with a 25-gauge, 1-inch hypodermic needle and the needle inserted between the dorsal aspects of L5 and L6 perpendicular to the vertebral column. This site corresponds to the region where the spinal cord ends and the cauda equina begins and was chosen to reduce the possibility of spinal damage. The needle was advanced until a slight but noticeable movement of the tail or the leg was observed. […] Drugs were injected in a volume of 10 μl and the syringe was held in place for a few seconds before being progressively and slowly withdrawn to avoid drug outflow. The rat then recovers from the anesthesia.

[2] = tested on: CCI animals (chronic constriction injury of the sciatic nerve); test: Mechanical withdrawal threshold in CCI animals after intrathecal injection; details: for analgesia, mechanical stimulus threshold: group data, FIG. 12
Source text: (§6) An automated instrument was used for assessing touch sensitivity. An animal was placed inside a plastic box on a raised plasticized wire-mesh surface. The animal is free to move within the confines of the box. The animal acclimates to the apparatus, and a touch stimulator unit was then slid under the animal to position a stainless steel filament (0.5 mm diameter) under the plantar surface of a paw. A button press causes the filament to move perpendicularly to the tested paw. The filament exerts an increasing force, starting below the threshold of detection and increases until the animal withdraws the paw. The force applied to the filament that results in paw withdrawal was recorded.
as §2, §3, §4, §5

[3] = tested on: control, uninjured animals; test: Thermal withdrawal latency in control, uninjured animals after intrathecal injection; details: uninjured rats
Description: as §1, §2
(§7) The animals were anesthetized with isoflurane and securely held in the sternal position. A 25 μl Hamilton-brand microsyringe was fitted with a 25-gauge, 1-inch hypodermic needle and the needle inserted between the dorsal aspects of L5 and L6 perpendicular to the vertebral column. This site corresponds to the region where the spinal cord ends and the cauda equina begins and was chosen to reduce the possibility of spinal damage. The needle was advanced until a slight but noticeable movement of the tail or the leg was observed. […]

calcineurin Aα isoform = test: Immunoblot of calcineurin Aα content in the post-synaptic density of spinal dorsal horn neurons after intrathecal injection; details: CCI rats; 90 min after single intrathecal injection of 100 units; vs saline; FIG. 7
Description: (§8) Animals were anesthetized with isoflurane and while still deeply anesthetized were euthanized with an intracardiac injection of super-saturated potassium chloride (>350 mg/ml). A laminectomy was used to rapidly (<2 min) expose the lumbar spinal cord at L5. About 1 cm of the cord was excised and placed into a Petri dish containing dry-ice-cold saline or homogenizing buffer. Subsequently, the cord was cut under a dissecting microscope into dorsal and ventral halves, and the dorsal half further divided into ipsilateral and contralateral quadrants. All tissues were immediately placed into dry-ice cooled collecting tubes, and stored at −80° C. until used.
(§9) Calcineurin activity was obtained with a commercial kit (Enzo Life Sciences, Plymouth Meeting, Pa.) and expressed as nmol of phosphate released/min/mg of protein. Immunoblots were performed as described previously (Miletic et al., 2002). Calcineurin isoform […] (Millipore, Billerica, Mass.) was used at a dilution of 1:1000. Developed membranes were stripped and re-probed with beta III tubulin (1:1000; Promega, Madison, Wis.) as the loading control. Protein levels were estimated with the BioSpectrum 500 Image Analysis System (UVP, Upland, Calif.). The calcineurin Aα content within a gel was expressed over the beta III tubulin content, and then the content in sham-operated or CCI animals was normalized to those in control animals. […]

[4] = tested on: control, uninjured animals; test: Mechanical withdrawal threshold in control, uninjured animals after intrathecal injection; details: uninjured rats
Source text: as §6, §2
as §7, with “damage.” for “damage. The needle was advanced until a slight but noticeable movement of the tail or the leg was observed.”

calcineurin = test: Calcineurin activity in the PSD after intrathecal injection (commercial kit); details: control, uninjured rats; 90 minutes after intrathecal injection; vs saline; FIG. 16
Description: as §8, §9

Substance: calcineurin
- thermal hypersensitivity ([1]; CCI rats 7 days post-ligation, 100 units in 10 μl intrathecal, retested 90 min after injection, FIG. 6): significantly attenuated
- analgesia, thermal latency threshold ([1]; CCI rats, 2-day post-injection group): provided analgesia
- analgesia, thermal latency threshold ([1]; CCI rats, 4-day post-injection group): provided analgesia
- analgesia, thermal latency threshold ([1]; CCI rats, 6-day post-injection group): disappeared
- thermal hypersensitivity ([1]; CCI rats, single intrathecal injection 100 units, 2 days after injection, continuous, FIG. 9): significantly attenuated
- thermal hypersensitivity ([1]; CCI rats, single intrathecal injection 100 units, 4 days after injection, continuous, FIG. 9): continued to exhibit analgesia
- thermal hypersensitivity ([1]; CCI rats, single intrathecal injection 100 units, 6 days after injection, continuous, FIG. 9): exhibited once again mechanical and thermal hypersensitivity
- mechanical hypersensitivity ([2]; CCI rats 7 days post-ligation, 100 units in 10 μl intrathecal, retested 90 min after injection, FIG. 5): significantly attenuated
- duration of pain relief from a single intrathecal injection ([2]; CCI rats, 100 units intrathecal, mechanical and thermal tests): ≥ 4 days
- analgesia, mechanical stimulus threshold ([2]; CCI rats, 2-day post-injection group, 100 units intrathecal): provided analgesia
- analgesia, mechanical stimulus threshold ([2]; CCI rats, 4-day post-injection group, 100 units intrathecal): provided analgesia
- analgesia, mechanical stimulus threshold ([2]; CCI rats, 6-day post-injection group, 100 units intrathecal): disappeared
- mechanical hypersensitivity ([2]; CCI rats, single intrathecal injection 100 units, 2 days after injection, same animals retested (continuous), FIG. 8): significantly attenuated
- mechanical hypersensitivity ([2]; CCI rats, single intrathecal injection 100 units, 4 days after injection, continuous, FIG. 8): continued to exhibit analgesia
- mechanical hypersensitivity ([2]; CCI rats, single intrathecal injection 100 units, 6 days after injection, continuous, FIG. 8): exhibited once again mechanical and thermal hypersensitivity
- behavior, thermal stimulation ([3]; single intrathecal injection, FIG. 11): not modified
- calcineurin Act in ipsilateral PSD (calcineurin Aα isoform): significantly more
- behavior, mechanical stimulation ([4]; single intrathecal injection, FIG. 10): not modified

Substance: FK-506 [reference compound]
- calcineurin activity in PSD (calcineurin): significant decrease
- thermal latencies ([3]; 90 minutes after intrathecal injection, vs saline, FIG. 15): significant decrease
- mechanical withdrawal thresholds ([4]; 90 minutes after intrathecal injection, vs saline, FIG. 14): significant decrease
